These are literature values, as cited in patent publication US20060079522A1, “Amino substituted aryloxybenzylpiperidine derivatives” (priority 2004, published 2006).

Data set [1] deals with T1, MCH1 receptor (Rattus norvegicus, UniProt P97639).
T1 construct: SNAP-7941, a selective MCH1 small molecule antagonist, was evaluated in several animal models; host or cells: living rats (endogenous receptor)
The note with it: rat social interaction.

Data set [2] addresses T1, MCH1 receptor. The note with it: rat forced-swim.
For data set [3], the system named is MCH1 receptor. The note with it: guinea pig maternal-separation vocalization.

Read-outs that look alike come from different tables or passages of the source.

T1 sequence (P97639 whole entry): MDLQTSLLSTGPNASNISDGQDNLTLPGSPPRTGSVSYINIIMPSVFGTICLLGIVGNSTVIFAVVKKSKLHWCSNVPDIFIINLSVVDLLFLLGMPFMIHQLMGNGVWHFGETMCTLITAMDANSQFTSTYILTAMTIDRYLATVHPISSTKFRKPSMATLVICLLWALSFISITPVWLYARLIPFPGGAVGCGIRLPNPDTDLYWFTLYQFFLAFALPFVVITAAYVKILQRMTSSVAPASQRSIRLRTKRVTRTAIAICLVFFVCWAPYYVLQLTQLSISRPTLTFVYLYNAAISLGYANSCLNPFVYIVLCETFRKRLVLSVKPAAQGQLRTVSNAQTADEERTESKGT

With `COCC1=C(C(=O)OC)[C@H](c2ccc(F)c(F)c2)N(C(=O)NCCCN2CCC(c3cccc(NC(C)=O)c3)CC2)C(=O)N1` [SNAP-7941], the “profile in behavioral model of depression and/or anxiety” value is “profile similar to clinically used anti-depressants and anxiolytics” on MCH1 receptor [1]; “profile similar to clinically used anti-depressants and anxiolytics” at MCH1 receptor [2]; “profile similar to clinically used anti-depressants and anxiolytics” with MCH1 receptor [3].
